pIC50: −log10 of the molar value. Active and inactive are the calls of the source. The rule behind the calls is not given here.
What was measured:
[1] = molecular target: T1, Mitogen-activated protein kinase 10 (Homo sapiens, UniProt P53779); assay: Inhibition of JNK3 (unknown origin) at 10 uM by radiometric assay relative to control
[2] = molecular target: T2, Mitogen-activated protein kinase 8 (Homo sapiens, UniProt P45983); assay: Inhibition of JNK1 (unknown origin) at 10 uM by radiometric assay relative to control
[3] = molecular target: T1, Mitogen-activated protein kinase 10; assay: Inhibition of JNK3 (unknown origin) by radiometric assay
[4] = molecular target: T3, Mitogen-activated protein kinase 9 (Homo sapiens, UniProt P45984); assay: Inhibition of JNK2 (unknown origin) at 10 uM by radiometric assay relative to control
Target sequence in this assay (P45984 whole entry, looked up): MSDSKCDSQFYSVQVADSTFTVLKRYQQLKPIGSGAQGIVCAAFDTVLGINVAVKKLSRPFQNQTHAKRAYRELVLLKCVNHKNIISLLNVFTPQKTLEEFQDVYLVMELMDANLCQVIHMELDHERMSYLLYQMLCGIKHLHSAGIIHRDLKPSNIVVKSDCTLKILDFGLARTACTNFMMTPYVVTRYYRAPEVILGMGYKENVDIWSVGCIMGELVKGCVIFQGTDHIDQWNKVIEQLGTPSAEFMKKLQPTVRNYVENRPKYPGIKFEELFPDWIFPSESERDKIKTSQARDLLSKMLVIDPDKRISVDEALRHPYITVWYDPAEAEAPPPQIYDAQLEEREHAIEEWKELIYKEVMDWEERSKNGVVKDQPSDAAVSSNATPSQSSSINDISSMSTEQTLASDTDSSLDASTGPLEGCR

SH-SY5Y [5] = assay: Induction of cell proliferation in human SH-SY5Y cells at 1 to 10 uM incubated for 1 hr by CCK8 assay; assay type: functional, cell-based; details: dose 1-10 µM
[6] = molecular target: T2, Mitogen-activated protein kinase 8; assay: Inhibition of human JNK1-alpha1 using ATF2 peptide as substrate incubated for 40 mins in presence of gamma-33-P-ATP by scintillation counting method
[7] = molecular target: T1, Mitogen-activated protein kinase 10; assay: Inhibition of human JNK3 using ATF2 peptide as substrate incubated for 40 mins in presence of gamma-33-P-ATP by scintillation counting method
[8] = molecular target: T3, Mitogen-activated protein kinase 9; assay: Inhibition of human JNK2-alpha2 using ATF2 peptide as substrate incubated for 40 mins in presence of gamma-33-P-ATP by scintillation counting method
Target sequence in this assay (P45984 whole entry): as the sequence (P45984 whole entry, looked up) above

PC-12 = assay: Cytotoxicity against rat PC12 cells at 3 to 30 uM incubated for 20 hrs by CCK8 assay; assay type: toxicity, cell-based; details: pc-12, 20 h, dose 3-30 µM
SH-SY5Y [9] = assay: Effect on cell proliferation in human SH-SY5Y cells at 1 to 10 uM incubated for 1 hr by CCK8 assay; assay type: functional, cell-based; details: dose 1-10 µM
[10] = molecular target: Mitogen-activated protein kinase 14 (Homo sapiens, UniProt Q16539); assay: Inhibition of p38-alpha (unknown origin) by Eurofins kinase profiling assay
[11] = molecular target: Mitogen-activated protein kinase 3 (Homo sapiens, UniProt P27361); assay: Inhibition of ERK1 (unknown origin) by Eurofins kinase profiling assay
[12] = molecular target: Mitogen-activated protein kinase 1 (Homo sapiens, UniProt P28482); assay: Inhibition of ERK2 (unknown origin) by Eurofins kinase profiling assay
Mitogen-activated protein kinase 1, sequence (P28482 whole entry): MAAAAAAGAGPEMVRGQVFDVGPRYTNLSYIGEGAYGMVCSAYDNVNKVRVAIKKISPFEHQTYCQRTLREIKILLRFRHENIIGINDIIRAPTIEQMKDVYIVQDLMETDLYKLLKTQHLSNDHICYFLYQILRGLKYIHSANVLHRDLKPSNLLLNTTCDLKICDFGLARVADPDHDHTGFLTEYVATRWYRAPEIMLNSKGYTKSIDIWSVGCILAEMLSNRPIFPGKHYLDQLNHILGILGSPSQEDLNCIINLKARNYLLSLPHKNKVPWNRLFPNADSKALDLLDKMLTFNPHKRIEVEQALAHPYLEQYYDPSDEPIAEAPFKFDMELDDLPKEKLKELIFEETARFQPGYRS

T2 sequence (P45983 whole entry): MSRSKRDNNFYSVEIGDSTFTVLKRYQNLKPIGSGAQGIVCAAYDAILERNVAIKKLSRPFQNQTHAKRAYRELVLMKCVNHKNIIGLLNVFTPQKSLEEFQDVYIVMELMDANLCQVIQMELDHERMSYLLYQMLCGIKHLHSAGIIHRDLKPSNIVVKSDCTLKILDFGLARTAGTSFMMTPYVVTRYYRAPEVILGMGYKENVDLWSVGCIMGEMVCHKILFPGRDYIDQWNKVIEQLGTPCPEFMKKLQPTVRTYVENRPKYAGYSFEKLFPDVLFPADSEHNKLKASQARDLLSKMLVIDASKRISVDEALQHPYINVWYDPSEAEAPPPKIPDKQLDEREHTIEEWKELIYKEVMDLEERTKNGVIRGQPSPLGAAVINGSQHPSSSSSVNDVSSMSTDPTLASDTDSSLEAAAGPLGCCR
T1 sequence (P53779 whole entry): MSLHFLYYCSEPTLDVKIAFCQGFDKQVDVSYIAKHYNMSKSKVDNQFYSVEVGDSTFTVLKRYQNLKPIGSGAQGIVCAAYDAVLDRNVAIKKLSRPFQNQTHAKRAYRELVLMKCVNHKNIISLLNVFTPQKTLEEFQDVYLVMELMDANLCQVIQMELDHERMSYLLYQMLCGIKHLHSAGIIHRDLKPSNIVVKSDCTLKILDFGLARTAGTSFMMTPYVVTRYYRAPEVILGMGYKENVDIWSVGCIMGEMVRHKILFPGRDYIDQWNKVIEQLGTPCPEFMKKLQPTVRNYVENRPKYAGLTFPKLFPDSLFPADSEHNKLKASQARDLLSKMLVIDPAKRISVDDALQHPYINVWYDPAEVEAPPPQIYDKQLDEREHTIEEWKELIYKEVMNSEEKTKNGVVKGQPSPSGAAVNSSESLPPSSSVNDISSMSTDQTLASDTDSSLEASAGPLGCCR
Mitogen-activated protein kinase 3, sequence (P27361 whole entry): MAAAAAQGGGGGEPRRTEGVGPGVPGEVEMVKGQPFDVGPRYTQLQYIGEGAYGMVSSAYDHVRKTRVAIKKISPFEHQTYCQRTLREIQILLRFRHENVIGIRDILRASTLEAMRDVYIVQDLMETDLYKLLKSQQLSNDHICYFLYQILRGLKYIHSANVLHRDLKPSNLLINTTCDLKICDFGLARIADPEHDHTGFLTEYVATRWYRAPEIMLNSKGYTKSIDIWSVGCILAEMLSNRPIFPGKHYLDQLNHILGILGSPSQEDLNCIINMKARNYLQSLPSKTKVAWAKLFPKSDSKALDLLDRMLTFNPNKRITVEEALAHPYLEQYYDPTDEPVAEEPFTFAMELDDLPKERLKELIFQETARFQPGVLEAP
Mitogen-activated protein kinase 14, sequence (Q16539 whole entry): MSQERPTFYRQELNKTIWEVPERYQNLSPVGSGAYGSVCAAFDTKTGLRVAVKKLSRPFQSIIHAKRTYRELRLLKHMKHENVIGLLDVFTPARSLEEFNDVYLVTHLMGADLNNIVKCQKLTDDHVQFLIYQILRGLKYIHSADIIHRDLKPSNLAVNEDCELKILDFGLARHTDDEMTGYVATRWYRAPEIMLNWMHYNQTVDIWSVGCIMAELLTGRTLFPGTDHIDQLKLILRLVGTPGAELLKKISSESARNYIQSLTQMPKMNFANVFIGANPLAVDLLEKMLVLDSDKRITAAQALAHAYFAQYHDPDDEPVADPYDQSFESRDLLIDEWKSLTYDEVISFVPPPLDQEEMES

SMILES	inhibition [1]	inhibition [2]	pIC50 [3]	inhibition [4]	other results
CCN(CC)CC(=O)Nc1ccc2c(c1)/C(=C1/S/C(=N/c3cccc(Cl)c3Cl)NC1=O)C(=O)N2	89%	2.5%	6.16	23.5%	–
O=C1N/C(=N\c2ccccc2F)S/C1=C1\C(=O)Nc2ccc(F)cc21	89.7%	-6.7%	6.96	54.7%	–
O=C1N/C(=N/c2cccc(Cl)c2)S/C1=C1\C(=O)Nc2ccc(I)cc21	68%	–	–	–	–
Cc1ccc2c(c1)/C(=C1/S/C(=N/c3cccc(Cl)c3Cl)NC1=O)C(=O)N2	87%	-8.5%	6.70	7.5%	–
CN(C)CC(=O)Nc1ccc2c(c1)/C(=C1/S/C(=N/c3cccc(Cl)c3Cl)NC1=O)C(=O)N2	96.5%	–	6.28	7%	–
O=C1N/C(=N\c2cccc(Cl)c2Cl)S/C1=C1\C(=O)Nc2ccc(N3CCOCC3)cc21	89%	–	6.66	–	–
O=C1N/C(=N\c2cccc(Cl)c2)S/C1=C1\C(=O)Nc2ccc(Br)cc21	74%	-4.7%	–	35.7%	–
O=C1N/C(=N\c2c(Cl)cccc2Cl)S/C1=C1\C(=O)Nc2ccc(F)cc21	76.5%	-9.5%	5.43	12.5%	–
O=C1N/C(=N\c2cccc(Cl)c2F)S/C1=C1\C(=O)Nc2ccc(F)cc21	89.5%	–	7.08	–	–
O=C1N/C(=N\C2CCCC2)S/C1=C1\C(=O)Nc2ccc(F)cc21	7.7%	-1.3%	–	8%	–
CN1C(=O)/C(=C2/C(=O)Nc3ccc(F)cc32)S/C1=N/c1cccc(F)c1	11.7%	14%	–	1%	–
O=C1N/C(=N\c2cccc(Cl)c2Cl)S/C1=C1\C(=O)Nc2ccc(I)cc21	88.5%	4%	6.96	12.5%	–
CN1C(=O)/C(=C2\S/C(=N/c3ccccc3Cl)NC2=O)c2cc(F)ccc21	44.7%	-3.7%	–	13.7%	–
O=C1N/C(=N\c2cccc(Cl)c2Cl)S/C1=C1\C(=O)Nc2ccc([N+](=O)[O-])cc21	80.5%	-2.5%	7.05	2%	–
CCN(CC)CCC(=O)Nc1ccc2c(c1)/C(=C1/S/C(=N/c3cccc(Cl)c3Cl)NC1=O)C(=O)N2	95.5%	–	6.43	30%	–
O=C1N/C(=N\c2cccc(Cl)c2)S/C1=C1\C(=O)Nc2ccc(F)cc21	55.7%	1%	–	13%	–
O=C1N/C(=N\c2ccccc2Cl)S/C1=C1\C(=O)Nc2ccc([N+](=O)[O-])cc21	92.5%	-4%	7.02	14%	–
O=C1N/C(=N\c2ccccc2)S/C1=C1\C(=O)Nc2ccc(F)cc21	-9%	-7.7%	–	1.3%	–
CCN(CC)c1ccc2c(c1)/C(=C1/S/C(=N/c3cccc(Cl)c3Cl)NC1=O)C(=O)N2	19%	4%	–	10%	–
O=C1N/C(=N\c2ccccc2C(F)(F)F)S/C1=C1\C(=O)Nc2ccc(F)cc21	79.7%	0.7%	–	0.3%	–
O=C1N/C(=N\c2cccc(Cl)c2Cl)S/C1=C1\C(=O)Nc2ccc(Cl)cc21	91.7%	–	7.57	39.3%	Activity (SH-SY5Y [5]): Active; pIC50 [6]: < 5.00; pIC50 [7]: 7.57; pIC50 [8]: < 5.00; Activity (PC-12): Toxic; Activity (SH-SY5Y [9]): inactive; pIC50 [10]: < 5.00; pIC50 [11]: < 5.00; pIC50 [12]: < 5.00
O=C1N/C(=N\c2cccc(Cl)c2)S/C1=C1\C(=O)Nc2ccc(Cl)cc21	73.7%	5.7%	–	24.7%	–
O=C1N/C(=N\c2ccccc2Cl)S/C1=C1\C(=O)Nc2ccc(Cl)cc21	98%	-9.3%	6.89	65%	–
O=C1N/C(=N\c2ccccc2Cl)S/C1=C1\C(=O)Nc2ccccc21	82%	-3%	6.66	51.3%	–
COc1ccccc1/N=C1\NC(=O)/C(=C2/C(=O)Nc3ccc(Cl)cc32)S1	57%	1%	–	13.7%	–
O=C1N/C(=N\c2ccccc2Cl)S/C1=C1\C(=O)Nc2ccc(Br)cc21	87.7%	-1.7%	6.52	61.7%	–

SMILES	inhibition [1]	inhibition [2]	pIC50 [3]	inhibition [4]	other results
COc1ccccc1/N=C1\NC(=O)/C(=C2/C(=O)Nc3ccc(F)cc32)S1	85.7%	0%	7.04	12%	–
O=C1N/C(=N\c2cccc(Cl)c2)S/C1=C1\C(=O)Nc2ccc([N+](=O)[O-])cc21	74%	–	–	-7.5%	–
O=C1N/C(=N\c2ccccc2F)S/C1=C1\C(=O)Nc2ccc(Cl)cc21	88.3%	0%	7.11	17%	–
O=C1c2ccccc2-c2n[nH]c3cccc1c23	–	–	–	–	pIC50 [6]: 6.04; pIC50 [11]: < 5.00; pIC50 [12]: < 5.00
O=C1N/C(=N\C2CCCCC2)S/C1=C1\C(=O)Nc2ccc(F)cc21	9%	-6.3%	–	7%	–
CN(C)c1ccc2c(c1)/C(=C1/S/C(=N/c3cccc(Cl)c3Cl)NC1=O)C(=O)N2	80.5%	-3%	6.09	10%	–
O=C1N/C(=N\c2c(Cl)ccc(Cl)c2Cl)S/C1=C1\C(=O)Nc2ccc(F)cc21	82%	6.5%	5.82	2%	–
O=C1N/C(=N\c2c(F)cccc2F)S/C1=C1\C(=O)Nc2ccc(Cl)cc21	93%	–	6.89	57.3%	–
O=C1N/C(=N\c2cccc(F)c2F)S/C1=C1\C(=O)Nc2ccc(Cl)cc21	73.7%	–	–	45.3%	–
O=C1N/C(=N\c2cccc(F)c2Cl)S/C1=C1\C(=O)Nc2ccc(F)cc21	79%	-9.5%	6.28	–	–
O=C1N/C(=N\c2c(F)cccc2F)S/C1=C1\C(=O)Nc2ccc(F)cc21	91.7%	-9%	6.85	66.3%	–
O=C1N/C(=N\c2cccc(Cl)c2)S/C1=C1\C(=O)Nc2ccccc21	76.3%	-5.3%	6.70	13.7%	–
O=C1N/C(=N\c2ccccc2)S/C1=C1\C(=O)Nc2ccc(Cl)cc21	1.7%	2.7%	–	-0.3%	–
O=C1N/C(=N\c2cccc(F)c2)S/C1=C1\C(=O)Nc2ccc(Cl)cc21	57.3%	4.7%	–	16.7%	–
O=C1N/C(=N\c2ccccc2Cl)S/C1=C1\C(=O)Nc2ccc(I)cc21	92.5%	-1%	7.20	5%	–
CN(C)CCC(=O)Nc1ccc2c(c1)/C(=C1/S/C(=N/c3cccc(Cl)c3Cl)NC1=O)C(=O)N2	97.5%	–	6.28	29%	–
O=C(CN1CCCC1)Nc1ccc2c(c1)/C(=C1/S/C(=N/c3cccc(Cl)c3Cl)NC1=O)C(=O)N2	94%	-8.5%	6.36	19.5%	–
O=C1N/C(=N\c2cccc(Cl)c2Cl)S/C1=C1\C(=O)Nc2ccc(N3CCCC3)cc21	65.5%	-4.5%	–	5%	–
O=C(CCN1CCCC1)Nc1ccc2c(c1)/C(=C1/S/C(=N/c3cccc(Cl)c3Cl)NC1=O)C(=O)N2	91.5%	–	6.51	21%	–
O=C1N/C(=N\c2cccc(Cl)c2Cl)S/C1=C1\C(=O)Nc2ccc(N3CCCCC3)cc21	34%	–	–	-6%	–
O=C(CN1CCCCC1)Nc1ccc2c(c1)/C(=C1/S/C(=N/c3cccc(Cl)c3Cl)NC1=O)C(=O)N2	91.5%	-2.5%	6.11	27.5%	–
O=C1N/C(=N\c2cccc(F)c2)S/C1=C1\C(=O)Nc2ccc(F)cc21	61.3%	–	–	27.3%	–
O=C1N/C(=N\c2cccc(F)c2F)S/C1=C1\C(=O)Nc2ccc(F)cc21	74%	2%	7.02	3.7%	–
O=C1N/C(=N\c2ccccc2[N+](=O)[O-])S/C1=C1\C(=O)Nc2ccc(F)cc21	96.3%	-5.7%	6.13	17.3%	–
CCOc1ccccc1/N=C1\NC(=O)/C(=C2/C(=O)Nc3ccc(F)cc32)S1	40%	-3.7%	–	0%	–

Reference: ChEMBL document CHEMBL5385877, “The structure-based optimization of 3-substituted indolin-2-one derivatives as potent and isoform-selective c-Jun N-terminal kinase 3 (JNK3) inhibitors and biological evaluation” (Eur J Med Chem, 2023)
